Test results as given in the NIST ThermoML archive (doi:10.1016/j.fluid.2008.02.016).
± gives the expanded uncertainty stated by the source.

Assays:
[1] = Crystal; DTA
[2] = Molar enthalpy of transition or fusion; details: Crystal; DSC

| Compound | Normal melting temperature [1] | Molar enthalpy of transition or fusion [2] |
| --- | --- | --- |
| Cc1ccc(C(C)(C)c2ccc(C)cc2)cc1 [2,2-bis(p-tolyl)propane] | 78.60 ± 0.5 °C | 5.07 ± 0.143 kcal/mol |
| Cc1ccc(C(c2ccc(C)cc2)(C(F)(F)F)C(F)(F)F)cc1 [2,2-bis(p-tolyl)hexafluoropropane] | 84.10 ± 0.5 °C | 5.33 ± 0.167 kcal/mol |
